One series concerns acetic test upon mice. In words: acetic test upon mice, analgesic effect (Siegmund method as modified by Koster, Anderson and Debeer). Type of series: in vivo. As to conditions: Mus musculus. An excerpt:
The compounds are identified by the numbers of the examples.

The subject of a further series is ulcers. Put plainly: aggravation of ulcers already caused in rats (Shay et al.), ulcerating effect. Type of series: in vivo. How it is done:
(§1) The pharmacological, analgesic and anti-inflammatory effectiveness and the slightly ulcerating effect of the propionic acids and their functional derivatives was determined by various methods. The compounds are identified by the numbers of the examples.
The compounds were compared with phenylbutazone in order to evaluate their ulcerating effect. The method used was that of aggravating ulcers which has already been caused in rats by the procedure described by Shay et al (Gastroenterology, 1945, Vol. 5, pages 43 to 61).

Series [1] has as its system carrageenin-induced oedema. Put plainly: carrageenin-induced oedema test upon rats, anti-inflammatory effect (Winter et al.). Type of series: in vivo. As to conditions: Rattus norvegicus, phenylbutazone control, read-out: Carrageenin (A.D. 30, mg/kg). How it is done:
as §1
The anti-inflammatory effect of the compounds claimed was established, inter alia, by the carrageenin-induced oedema test upon rats (Winter et al. -- Proc. Soc. Exp. Biol. Med. 1962, Vol. III, pages 544 and 547). The results obtained with certain of the compounds of the invention are given below in Table II (phenylbutazone was used as a control).
On the technique in general: The carrageenan paw model is a standard test of acute inflammation.

Series [2] is described as follows: observations made during clinical trials. Type of series: in vivo, human (patients: Mrs. / Mr.). How it is done: Pharmaceutical compositions comprising a compound of the invention as their active ingredient and a physiologically acceptable, solid or liquid pharmaceutical excipient or diluent enable the active ingredient to be administered in daily doses of from 20 to 1000 mg. Among the observations made during clinical trials with the compound of Example 13 the following may be mentioned:
Among the observations made during clinical trials of the compound of Example 22 may be mentioned the following five: […]

For series [3] the following is noted: recently discovered; cited from earlier work.
[4] abbreviates: mice, acetic test, aspirin control, read-out: ED50.
Where [5] appears, read: A person, inflammation of arteries in lower limbs, four 150 mg tablets per day, five days.
The mark [6] stands for this setting: A person, lumbar arthrosis, six 150 mg tablets per day, 10 days.
[7] abbreviates: A person, removal of left knee-cap, six 150 mg tablets per day, 5 days.
[8] abbreviates: A person, very intense lumbar pain, four 150 mg tablets per day, ten days.
The mark [9] stands for this setting: A person, cervical pain from arthritic spine, four 100 mg tablets per day, 8 days.
Where [10] appears, read: A person, pseudoarthrosis of the knee, five 100 mg tablets per day, 8 days.
Setting [11] is: A person, stripping of varicose veins, six 100 mg tablets per day, 5 days.
Setting [12] is: person one, sciatica, four 100 mg tablets per day, 10 days.
[13] abbreviates: person two, post-fracture gonarthrosis, four 100 mg tablets per day, 10 days.

Structures can show the parent of a compound that is named as a salt. Where two headings read alike, the source gives them in different places. Where only a bound is given, the exact number is not on record here.

As a reminder, the ED50 is the dose that gives a 50% effect, or the effect in half of the subjects.

In the series with acetic test upon mice, `CC(=O)Oc1ccccc1C(=O)O` [Aspirin, reference compound] had an ED50 of 130 mg/kg.
With `CCCCC1C(=O)N(c2ccccc2)N(c2ccccc2)C1=O` [Phenylbutazone, reference compound], in the series with ulcers (dose 200 mg/kg body weight/PO), the “Aggravation of ulceration, Coefficient” value is reported as 100. In addition, in series [1], the ED30 came out at 50 mg/kg.
On to `CC(C(=O)OCCN1CCOCC1)c1ccc2oc(-c3cccs3)cc(=O)c2c1` (stereo not drawn) [Example 32, The acid oxalate of β-morpholinoethyl-2-[2'-(α-thienyl)-6'-chromonyl]propionate], for which the ED50 in the series on acetic test upon mice (setting [4]) stood at 4.6 mg/kg.
On to `CC(C(=O)O)c1ccc2oc(-c3ccccc3)cc(=O)c2c1` (stereo not shown) [Example 22, 2-(6'-Flavonyl)propionic acid], for which, in the series with ulcers (dose 300 mg/kg body weight/PO), the “Aggravation of ulceration, Coefficient” value was found to be 60. Further, the ED50 in the series with acetic test upon mice (setting [4]) was 9 mg/kg. Besides, in series [2] (setting [5]), the duration of relief entry is on record as “more than three”, the relief entry was “very distinct relief” and the “time after administration until relief” value is given as “less than 30 minutes”. For the same molecule, in series [2] (setting [6]), the duration of relief entry is recorded as “three”, the functional improvement result was “appreciable functional improvement” and the “time after administration until relief” value was “thirty”. Also, the “results against pain and signs of inflammation” value in series [2] (A person, pain in neck and arm, four 150 mg tablets per day, eight days) is listed as “very good”. In addition, in series [2] (setting [7]), the duration of relief is above 3 h, the relief entry is reported as “complete” and the “time until relief appears” value is recorded as “less than 30 minutes”. Further, in series [2] (setting [8]), the antalgic effect entry is recorded as “excellent”, the “distance which the patient could move their fingertips towards the ground” value is “from 40 to 5” and the improvement entry is recorded as “very pronounced improvement”. For the same molecule, the tolerance result in series [2] (A person, four 150 mg tablets per day, eight days) is given as “complete”. The tolerance result in series [2] (A person, four 150 mg tablets per day, five days) was “satisfactory”. In series [2] (A person, four 150 mg tablets per day, ten days), the tolerance entry is “complete”. For the same molecule, the tolerance entry in series [2] (A person, six 150 mg tablets per day, 5 days) is reported as “good”. The tolerance entry in series [2] (A person, six 150 mg tablets per day, 10 days) is recorded as “complete”. The ED30 in series [1] was 65 mg/kg.
For the molecule `CCCOC(=O)C(C)c1ccc2oc(-c3ccccc3)cc(=O)c2c1` (stereo not shown) [Example 25, Propyl 2-(2'-phenyl-6'-chromonyl)propionate], in the series with acetic test upon mice (setting [4]), the ED50 was 6 mg/kg. Also, the ED30 in series [1] came to 85 mg/kg.
Consider `CC(C(=O)O)c1ccc2oc(-c3cccs3)cc(=O)c2c1` (stereo not drawn) [Example 13, 2-[2'-(α-Thienyl)-6'-chromonyl]propionic acid], for which, in the series on ulcers (dose 300 mg/kg body weight/PO), the “Aggravation of ulceration, Coefficient” value was found to be 50. Also, the ED50 in the series with acetic test upon mice (setting [4]) was 1.5 mg/kg. Further, in series [2] (setting [9]), the analgesic effect entry is listed as “good” and the “movement in the neck” value is listed as “restored movement to normal amplitude in the neck unaccompanied by pain”. Besides, in series [2] (setting [10]), the antiinflammatory effect entry is “very good”, the “duration of relief of pain” value is reported as “three” and the relief of pain entry is listed as “good”. Further, in series [2] (setting [11]), the duration of relief came out at 3 h, the relief result is on record as “complete” and the “time after administration until relief apparent” value was “less than 30 minutes”. Moreover, in series [2] (A person, five 100 mg tablets per day, 8 days), the tolerance result is recorded as “perfect”. In series [2] (A person, four 100 mg tablets per day, 8 days), the tolerance entry is given as “very good”. In addition, the tolerance entry in series [2] (A person, six 100 mg tablets per day, 5 days) is on record as “very good”. Moreover, in series [2] (setting [12]), the analgesic effect result is given as “excellent” and the “improvement in the results of the Lasegue test” value is “from 45 to 75”. Moreover, in series [2] (person one, four 100 mg tablets per day, 10 days), the tolerance entry is “complete”. For the same molecule, in series [2] (setting [13]), the analgesic effect entry is “very positive”, the knee flexion improvement entry is recorded as “from 15 to 25”, the “results on the knee” value is “excellent” and the “temperature of the knee” value is “returned to its normal temperature”. Moreover, the tolerance result in series [2] (person two, four 100 mg tablets per day, 10 days) is given as “good”. In addition, the ED30 in series [1] was determined as 10 mg/kg.
As for `COC(=O)C(C)c1ccc2oc(-c3cccs3)cc(=O)c2c1` (stereo not drawn) [Example 29, Methyl 2-[2'-(α-thienyl)-6'-chromonyl]propionate], the ED50 in the series on acetic test upon mice (setting [4]) amounted to 2.3 mg/kg. Also, in series [1], the ED30 was determined as 37 mg/kg.
As for `O=C(O)Cc1ccc2oc(-c3ccccc3)cc(=O)c2c1` [6-(2-Phenylchromonyl) acetic acid], the choleretic activity result in series [3] is listed as “choleretic activity”.

Source of the values: patent US4097582A, “6',2-(2'-Arylchromonyl) propionic acids, and analgesic and anti-inflammatory derivatives thereof” (Lipha, Lyonnaise Industrielle Pharmaceutique, priority 1974, dated 1978).
